Measurements from patent US9139576B2, “Aminomethyl biaryl benzotriazole derivatives” (Merck Sharp & Dohme Corp., priority 2011, dated 2015).

Target: T1, recombinant human mGluR2 (Homo sapiens, UniProt Q14416)
T1 construct: expressed in transfected cells
Experiment: FLIPR Ca2+ mobilization assay, potentiation of mGluR2
Format: cell-based
Conditions: potentiation with EC20 glutamate (900 nM); CHO dhfr- cells expressing human mGluR2 and Gα16
Protocol: Potencies are determined as follows. The compounds of the present invention may be tested in a fluorescence laser imaging plate reader (FLIPR) based assay. This assay is a common functional assay to monitor Ca^2+ mobilization in whole cells expressing recombinant receptor coupled with a promiscuous G-protein. CHO dhfr-cells stably expressing recombinant human mGluR2 and Gα16 loaded with Fluo-4 AM (Invitrogen, Carlsbad Calif.) are treated with varying concentrations of compounds and the Ca^2+ response is monitored on a FLIPR384 (Molecular Devices, Sunnydale Calif.) for agonist activity. The potentiation response is monitored after a subsequent addition of an EC20 concentration of glutamate (900 nM). The maximum calcium response at each concentration of compound for agonism or potentiation are plotted as dose responses curves fitted with a four parameters logistic equation giving EC50 and Hill coefficient using the iterative non linear curve fitting software program.

T1 sequence (Q14416 19-872): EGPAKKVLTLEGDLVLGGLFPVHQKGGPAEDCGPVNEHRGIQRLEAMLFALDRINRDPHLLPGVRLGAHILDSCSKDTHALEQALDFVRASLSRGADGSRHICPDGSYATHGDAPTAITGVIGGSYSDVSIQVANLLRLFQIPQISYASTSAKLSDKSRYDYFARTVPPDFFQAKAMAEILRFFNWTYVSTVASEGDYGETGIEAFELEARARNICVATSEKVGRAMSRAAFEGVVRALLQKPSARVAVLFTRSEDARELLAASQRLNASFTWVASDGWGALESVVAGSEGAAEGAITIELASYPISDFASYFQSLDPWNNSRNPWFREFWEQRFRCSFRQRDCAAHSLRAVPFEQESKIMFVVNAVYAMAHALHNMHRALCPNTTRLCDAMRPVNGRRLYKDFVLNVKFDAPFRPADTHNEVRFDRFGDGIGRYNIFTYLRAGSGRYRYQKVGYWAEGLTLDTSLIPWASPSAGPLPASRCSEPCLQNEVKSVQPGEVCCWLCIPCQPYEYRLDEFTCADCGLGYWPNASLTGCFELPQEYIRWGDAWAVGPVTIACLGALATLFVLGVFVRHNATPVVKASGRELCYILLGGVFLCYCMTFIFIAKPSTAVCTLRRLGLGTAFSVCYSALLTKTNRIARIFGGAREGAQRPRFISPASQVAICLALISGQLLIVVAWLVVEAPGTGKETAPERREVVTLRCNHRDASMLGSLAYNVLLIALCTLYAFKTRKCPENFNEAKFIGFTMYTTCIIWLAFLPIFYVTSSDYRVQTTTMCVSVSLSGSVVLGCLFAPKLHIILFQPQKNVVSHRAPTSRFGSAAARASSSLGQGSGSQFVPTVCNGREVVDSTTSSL

Going from `CN1C(=O)CN(Cc2ccc(-c3ccc4c(nnn4CC4CC4)c3C(F)(F)F)c(F)n2)C1=O` [Example 1, 1-({5-[1-(Cyclopropylmethyl)-4-(trifluoromethyl)-1H-benzotriazol-5-yl]-6-fluoropyridin-2-yl}methyl)-3-methylimidazolidine-2,4-dione] to `CN1C(=O)CN(Cc2ccc(-c3ccc4c(nnn4CC4CC4)c3C(F)(F)F)cc2)C1=O` [Example 2, 1-{4-[1-(Cyclopropylmethyl)-4-(trifluoromethyl)-1H-benzotriazol-5-yl]benzyl}-3-methylimidazolidine-2,4-dione], the EC50 falls from 0.0173 µM to 0.0058 µM (3-fold). The second is the more potent here.

`O=C1CN(Cc2ccc(-c3ccc4c(nnn4CC4CC4)c3C(F)(F)F)cc2)C(=O)N1` [Example 4, 1-{4-[1-(Cyclopropylmethyl)-4-(trifluoromethyl)-1H-benzotriazol-5-yl]benzyl}imidazolidine-2,4-dione] and `O=C1CN(Cc2ccc(-c3ccc4c(nnn4CC4CC4)c3Cl)cc2)C(=O)N1` [Example 51, 1-{4-[4-Chloro-1-(cyclopropylmethyl)-1H-benzotriazol-5-yl]benzyl}imidazolidine-2,4-dione] are within 1.5-fold of each other in EC50: 0.00921 µM for the first, 0.0114 µM for the second.

`C[C@H](O)C(=O)NCc1ccc(-c2ccc3c(nnn3CC3CC3)c2C(F)(F)F)cc1` [Example 5, (2S)—N-{4-[1-(Cyclopropylmethyl)-4-(trifluoromethyl)-1H-benzotriazol-5-yl]benzyl}-2-hydroxypropanamide] and `C[C@@H](O)C(=O)NCc1ccc(-c2ccc3c(nnn3CC3CC3)c2Cl)cc1` [Example 39, (2R)—N-{4-[4-chloro-1-(cyclopropylmethyl)-1H-benzotriazol-5-yl]benzyl}-2-hydroxypropanamide] are within 1.5-fold of each other in EC50: 0.0591 µM for the first, 0.049 µM for the second.

First: Cn1c(=O)[nH]n(Cc2ccc(-c3ccc4c(nnn4CC(C)(C)C)c3Br)cc2)c1=O [Example 7, 1-{4-[4-Bromo-1-(2,2-dimethylpropyl)-1H-benzotriazol-5-yl]benzyl}-4-methyl-1,2,4-triazolidine-3,5-dione]
Second: CC(C)Cn1nnc2c(Br)c(-c3ccc(CN4CC(=O)N(C)C4=O)cc3)ccc21 [Example 8, 1-{4-[4-Bromo-1-(2-methylpropyl)-1H-benzotriazol-5-yl]benzyl}-3-methylimidazolidine-2,4-dione]
The EC50 of the first is 180-fold higher: 0.532 µM for the first, 0.003 µM for the second. The second is the more potent here.

`CC(C)Cn1nnc2c(C(F)(F)F)c(-c3ccc(CN4CC(=O)N(C)C4=O)cc3)ccc21` [Example 9, 3-Methyl-1-{4-[1-(2-methylpropyl)-4-(trifluoromethyl)-1H-benzotriazol-5-yl]benzyl}imidazolidine-2,4-dione] and `CN1C(=O)CN(Cc2ccc(-c3ccc4c(nnn4CC4CC4)c3Br)cc2)C1=O` [Example 10, 1-{4-[4-Bromo-1-(cyclopropylmethyl)-1H-benzotriazol-5-yl]benzyl}-3-methylimidazolidine-2,4-dione] are within 1.5-fold of each other in EC50: 0.0061 µM for the first, 0.0053 µM for the second.

Compared with `CSc1c(-c2ccc(CN3CC(=O)N(C)C3=O)c(F)c2)ccc2c1nnn2CC1CC1` [Example 15, 1-{4-[1-(Cyclopropylmethyl)-4-(methylsulfanyl)-1H-benzotriazol-5-yl]-2-fluorobenzyl}-3-methylimidazolidine-2,4-dione], `CN1C(=O)CN(Cc2ccc(-c3ccc4c(nnn4CC4CC4)c3[S+](C)[O-])cc2F)C1=O` (stereo not shown) [Example 17, 1-{4-[1-(Cyclopropylmethyl)-4-(methylsulfinyl)-1H-benzotriazol-5-yl]-2-fluorobenzyl}-3-methylimidazolidine-2,4-dione] is 190-fold higher in EC50: 0.0066 µM for the first, 1.25 µM for the second.

First: CN1C(=O)CN(Cc2ccc(-c3ccc4c(nnn4CC4CC4)c3S(C)(=O)=O)cc2F)C1=O [Example 16, 1-{4-[1-(Cyclopropylmethyl)-4-(methylsulfonyl)-1H-benzotriazol-5-yl]-2-fluorobenzyl}-3-methylimidazolidine-2,4-dione]
Second: CN1C(=O)CN(Cc2ccc(-c3ccc4c(nnn4CC4CC4)c3C=O)cc2)C1=O [Example 20, 1-(Cyclopropylmethyl)-5-{4-[(3-methyl-2,4-dioxoimidazolidin-1-yl)methyl]phenyl}-1H-benzotriazole-4-carbaldehyde]
The EC50 of the first is 4.4-fold higher: 0.245 µM for the first, 0.056 µM for the second. The second is the more potent here.

First: CN1C(=O)CN(Cc2ccc(-c3ccc4c(nnn4CC4CC4)c3C#N)cc2)C1=O [Example 18, 1-(Cyclopropylmethyl)-5-{4-[(3-methyl-2,4-dioxoimidazolidin-1-yl)methyl]phenyl}-1H-benzotriazole-4-carbonitrile]
Second: CN1C(=O)CN(Cc2ccc(-c3ccc4c(nnn4CC4CC4)c3Cl)cc2)C1=O [Example 29, 1-{4-[4-Chloro-1-(cyclopropylmethyl)-1H-benzotriazol-5-yl]benzyl}-3-methylimidazolidine-2,4-dione]
The EC50 of the first is 3.4-fold higher: 0.039 µM for the first, 0.0114 µM for the second.

Compared with `CCc1c(-c2ccc(CN3CC(=O)N(C)C3=O)cc2)ccc2c1nnn2CC1CC1` [Example 19, 1-{4-[1-(Cyclopropylmethyl)-4-ethyl-1H-benzotriazol-5-yl]benzyl}-3-methylimidazolidine-2,4-dione], `CN1C(=O)CN(Cc2ccc(-c3ccc4c(nnn4CC4CC4)c3CO)cc2)C1=O` [Example 21, 1-{4-[1-(Cyclopropylmethyl)-4-(hydroxymethyl)-1H-benzotriazol-5-yl]benzyl}-3-methylimidazolidine-2,4-dione] is 110-fold higher in EC50: 0.0078 µM for the first, 0.841 µM for the second. The first is the more potent here.

Going from `CN1C(=O)CN(Cc2ccc(-c3ccc4c(nnn4CC4CC4)c3CF)cc2)C1=O` [Example 22, 1-{4-[1-(Cyclopropylmethyl)-4-(fluoromethyl)-1H-benzotriazol-5-yl]benzyl}-3-methylimidazolidine-2,4-dione] to `CN1C(=O)CN(Cc2ccc(-c3ccc4c(c3)nnn4CC3CC3)cc2)C1=O` [Example 28, 1-{4-[1-(Cyclopropylmethyl)-1H-benzotriazol-5-yl]benzyl}-3-methylimidazolidine-2,4-dione], the EC50 rises from 0.014 µM to 0.196 µM (14-fold). The first is the more potent here.

First: [N-]=[N+]=NCc1ccc(-c2ccc3c(nnn3CC3CC3)c2Cl)cc1 [Example 37, 5-[4-(Azidomethyl)phenyl]-4-chloro-1-(cyclopropylmethyl)-1H-benzotriazole]
Second: NCc1ccc(-c2ccc3c(nnn3CC3CC3)c2Cl)cc1 [Example 38, 1-{4-[4-Chloro-1-(cyclopropylmethyl)-1H-benzotriazol-5-yl]phenyl}methanamine]
The EC50 of the first is 44-fold lower: 0.053 µM for the first, 2.32 µM for the second.

Going from `CC(C)(C)OC(=O)N1CCN(Cc2ccc(-c3ccc4c(nnn4CC4CC4)c3Cl)cc2)CC1` [Example 52, tert-Butyl 4-{4-[4-chloro-1-(cyclopropylmethyl)-1H-benzotriazol-5-yl]benzyl}piperazine-1-carboxylate] to `N#CCC(=O)N1CCN(Cc2ccc(-c3ccc4c(nnn4CC4CC4)c3Cl)cc2)CC1` [Example 72, 3-(4-{4-[4-Chloro-1-(cyclopropylmethyl)-1H-benzotriazol-5-yl]benzyl}piperazin-1-yl)-3-oxopropanenitrile], the EC50 falls from 0.08 µM to 0.0304 µM (2.6-fold).

First: Clc1c(-c2ccc(CN3CCNCC3)cc2)ccc2c1nnn2CC1CC1 [Example 71, 4-Chloro-1-(cyclopropylmethyl)-5-[4-(piperazin-1-ylmethyl)phenyl]-1H-benzotriazole]
Second: O=C1CNC(=O)N1Cc1ccc(-c2ccc3c(nnn3CC3CC3)c2Cl)cc1 [Example 84, 3-{4-[4-Chloro-1-(cyclopropylmethyl)-1H-benzotriazol-5-yl]benzyl}imidazolidine-2,4-dione]
The EC50 of the first is 6.7-fold higher: 0.234 µM for the first, 0.0349 µM for the second.

First: CCOC(=O)CNC(=O)NCc1ccc(-c2ccc3c(nnn3CC3CC3)c2Cl)cc1 [Example 83, Ethyl N-({4-[4-chloro-1-(cyclopropylmethyl)-1H-benzotriazol-5-yl]benzyl}carbamoyl)glycinate]
Second: CN1CC(=O)N(Cc2ccc(-c3ccc4c(nnn4CC4CC4)c3Cl)cc2)C1=O [Example 85, 3-{4-[4-Chloro-1-(cyclopropylmethyl)-1H-benzotriazol-5-yl]benzyl}-1-methylimidazolidine-2,4-dione]
The EC50 of the first is 14-fold higher: 0.124 µM for the first, 0.0089 µM for the second. The second is the more potent here.
